Measurements as given in patent US12331040B2 (Karyopharm Therapeutics Inc., priority 2013, dated 2025).
Where two headings read alike, the source gives them in different places.

What was measured:
Assay in all cases: MTT cell proliferation assay
Assay type in all cases: cell-based
MS751 cells = conditions: Homo sapiens, approximately 64-72 hours incubation
Outline: (§1)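 5,000-10,000 cells/well, overnight attach; 8 conc., 1 nM–30 μM; MTT ~4 h; formazan solubilized, OD 490 nm; % inhibition = (1−(ODo/OD))×100 vs neg. control; mostly duplicate, mean±SE.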

Z138 cells = conditions: Homo sapiens, Z-138, Z138 cells, approximately 64-72 hours incubation
Outline: as §1

3T3 cells = conditions: Mus musculus, NIH3T3, approximately 64-72 hours incubation
Outline: as §1

[1] = MS751, MS751 cells, read-out: MTT Assay IC50 MS-751
[2] = MS751, MS751 cells, read-out: MTT Assay IC50, MS-751
[3] = read-out: MTT Assay IC50, Z-138

Compound | IC50 (MS751 cells; [1]) | IC50 (Z138 cells; read-out: MTT Assay IC50 Z-138) | IC50 (3T3 cells; read-out: MTT Assay IC50 3T3) | IC50 (MS751 cells; [2]) | IC50 (Z138 cells; [3]) | IC50 (3T3 cells; read-out: MTT Assay IC50, 3T3) | IC50 (MS751 cells; MS751 cells, read-out: MTT Assay IC50 MS-751)
Nc1ccc(/C=C/C(=O)NCc2cc3cc(-c4ccc(OC(=O)N5CCOCC5)cc4)cc(Cl)c3o2)cn1 [Compound 556, (E)-4-(2-((3-(6-aminopyridin-3-yl)acrylamido)methyl)-7-chlorobenzofuran-5-yl)phenyl morpholine-4-carboxylate] | 0.1 to 5 µM | 0.1 to 5 µM | > 10 µM |  |  |  | 
Nc1ccc(/C=C/C(=O)NCc2cc3cc(-c4ccc(C(=O)N5CCOCC5)nn4)cc(Cl)c3o2)cn1 [Compound 552, (E)-3-(6-aminopyridin-3-yl)-N-((7-chloro-5-(6-(morpholine-4-carbonyl)pyridazin-3-yl)benzofuran-2-yl)methyl)acrylamide] | 0.1 to 5 µM | 0.1 to 5 µM | > 10 µM |  |  |  | 
CC1(F)CCN(C(=O)c2ccc(-c3cc(C(F)(F)F)c4oc(CNC(=O)/C=C/c5ccc(N)nc5)cc4c3)nc2)C1 (single isomer, unassigned) [Compound 654, (E)-3-(6-aminopyridin-3-yl)-N-((5-(5-(3-fluoro-3-methylpyrrolidine-1-carbonyl)pyridin-2-yl)-7-(trifluoromethyl)benzofuran-2-yl)methyl)acrylamide] | < 0.1 µM | < 0.1 µM | > 10 µM |  |  |  | 
O=C(/C=C/c1cccnc1)NCc1cc2cc(-c3ccc(C(=O)N4CCC(F)(F)CC4)cc3)cc(C(F)(F)F)c2o1 [Compound 682, (E)-N-((5-(4-(4,4-difluoropiperidine-1-carbonyl)phenyl)-7-(trifluoromethyl)benzofuran-2-yl)methyl)-3-(pyridin-3-yl)acrylamide] |  |  |  | 0.1 to 5 µM | 0.1 to 5 µM | 0.1 to 5 µM | 
Nc1ccc(/C=C/C(=O)NCc2cc3cc(-c4ccc(C(=O)N5CCC(F)(F)CC5)cc4F)cc(-c4cccnc4)c3o2)cn1 [Compound 748, (E)-3-(6-aminopyridin-3-yl)-N-((5-(4-(4,4-difluoropiperidine-1-carbonyl)-2-fluorophenyl)-7-(pyridin-3-yl)benzofuran-2-yl)methyl)acrylamide] |  |  |  | < 0.1 µM | < 0.1 µM | 0.1 to 5 µM | 
Nc1ccc(/C=C/C(=O)NCc2cc3cc(-c4ccc(CC(=O)N5CCOCC5)cc4)cc(Cl)c3o2)cn1 [Compound 553, (E)-3-(6-Aminopyridin-3-yl)-N-((7-chloro-5-(4-(2-morpholino-2-oxoethyl)phenyl)benzofuran-2-yl)methyl)acrylamide] | 0.1 to 5 µM | 0.1 to 5 µM | > 10 µM |  |  |  | 
Nc1ccc(/C=C/C(=O)NCc2cc3cc(-c4ccc(C(F)(F)F)cc4)cc(-c4ccc(F)cc4)c3o2)cn1 [Compound 692, (E)-3-(6-aminopyridin-3-yl)-N-((7-(4-fluorophenyl)-5-(4-(trifluoromethyl)phenyl)benzofuran-2-yl)methyl)acrylamide] |  |  |  | 0.1 to 5 µM | 0.1 to 5 µM | > 10 µM | 
O=C(/C=C/c1cccnc1)NCc1cc2cc(-c3ccc(C(=O)N4CCC(F)(F)CC4)cn3)cc(-c3cccnc3)c2o1 [Compound 673, (E)-N-((5-(5-(4,4-difluoropiperidine-1-carbonyl)pyridin-2-yl)-7-(pyridin-3-yl)benzofuran-2-yl)methyl)-3-(pyridin-3-yl)acrylamide] |  |  |  | < 0.1 µM | < 0.1 µM | < 0.1 µM | 
O=C(/C=C/c1cccnc1)NCc1cc2cc(-c3ccc(C(=O)N4CCC(F)(F)CC4)cc3)cc(OC(F)(F)F)c2o1 [Compound 687, (E)-N-((5-(4-(4,4-difluoropiperidine-1-carbonyl)phenyl)-7-(trifluoromethoxy)benzofuran-2-yl)methyl)-3-(pyridin-3-yl)acrylamide] |  |  |  | < 0.1 µM | < 0.1 µM | 0.1 to 5 µM | 
Nc1ccc(/C=C/C(=O)NCc2cc3c(-c4ccc(C(=O)N5CCC(F)(F)CC5)cn4)cc(C(F)(F)F)cc3o2)cn1 [Compound 761, (E)-3-(6-aminopyridin-3-yl)-N-((4-(5-(4,4-difluoropiperidine-1-carbonyl)pyridin-2-yl)-6-(trifluoromethyl)benzofuran-2-yl)methyl)acrylamide] |  |  |  | > 10 µM | > 10 µM | > 10 µM | 
Nc1ccc(/C=C/C(=O)NCc2cc3cc(-c4ccc(C(=O)N5CCC(F)(F)CC5)cc4)cc(-c4ccncc4F)c3o2)cn1 [Compound 696, (E)-3-(6-aminopyridin-3-yl)-N-((5-(4-(4,4-difluoropiperidine-1-carbonyl)phenyl)-7-(3-fluoropyridin-4-yl)benzofuran-2-yl)methyl)acrylamide] |  |  |  | < 0.1 µM | < 0.1 µM | 0.1 to 5 µM | 
Nc1ccc(/C=C/C(=O)NCc2cc3cc(-c4ccc(C(=O)N5CCNCC5)cc4)cc(Cl)c3o2)cn1 [Compound 601] | 0.1 to 5 µM | 0.1 to 5 µM | > 10 µM |  |  |  | 
Nc1ccc(/C=C/C(=O)NCc2cc3cc(-c4ccc(C(=O)N5CCC(F)(F)CC5)cc4F)cc(-c4cccc(Cl)c4)c3o2)cn1 [Compound 756, (E)-3-(6-aminopyridin-3-yl)-N-((7-(3-chlorophenyl)-5-(4-(4,4-difluoropiperidine-1-carbonyl)-2-fluorophenyl)benzofuran-2-yl)methyl)acrylamide] |  |  |  | < 0.1 µM | < 0.1 µM | > 10 µM | 
O=C(/C=C/c1cscn1)NCc1cc2cc(-c3ccc(C(=O)N4CCOCC4)cc3)cc(Cl)c2o1 [Compound 542] | 0.1 to 5 µM | 0.1 to 5 µM | > 10 µM |  |  |  | 
CCS(=O)(=O)c1ccc(-c2cc(-c3ccc(F)cc3)c3oc(CNC(=O)/C=C/c4ccc(N)nc4)cc3c2)cc1 [Compound 709, (E)-3-(6-aminopyridin-3-yl)-N-((5-(4-(ethylsulfonyl)phenyl)-7-(4-fluorophenyl)benzofuran-2-yl)methyl)acrylamide] |  |  |  | < 0.1 µM | < 0.1 µM | > 10 µM | 
Nc1ccc(/C=C/C(=O)NCc2cc3cc(-c4ccc(C(=O)N5CCC(O)(C(F)(F)F)C5)cn4)cc(C(F)(F)F)c3o2)cn1 (stereo not drawn) [Compound 613, (E)-3-(6-aminopyridin-3-yl)-N-((5-(5-(3-hydroxy-3-(trifluoromethyl)pyrrolidine-1-carbonyl)pyridin-2-yl)-7-(trifluoromethyl)benzofuran-2-yl)methyl)acrylamide] | 0.1 to 5 µM | < 0.1 µM | > 10 µM |  |  |  | 
COc1cc(-c2ccc(C(=O)N3CCOCC3)cn2)cc2cc(CNC(=O)/C=C/c3ccc(N)nc3)oc12 [Compound 640, (E)-3-(6-aminopyridin-3-yl)-N-((7-methoxy-5-(5-(morpholine-4-carbonyl)pyridin-2-yl)benzofuran-2-yl)methyl)acrylamide] | < 0.1 µM | < 0.1 µM | > 10 µM |  |  |  | 
Nc1ccc(/C=C/C(=O)NCc2cc3cc(-c4ccc(C(=O)N5CCC(F)(F)CC5)cn4)cc(OC(F)(F)F)c3o2)cn1 [Compound 663, (E)-3-(6-aminopyridin-3-yl)-N-((5-(5-(4,4-difluoropiperidine-1-carbonyl)pyridin-2-yl)-7-(trifluoromethoxy)benzofuran-2-yl)methyl)acrylamide] |  |  |  | < 0.1 µM | < 0.1 µM | 0.1 to 5 µM | 
Nc1ccc(/C=C/C(=O)NCc2cc3cc(-c4ncc(C(=O)N5CCNCC5)cn4)cc(Cl)c3o2)cn1 [Compound 649, (E)-3-(6-aminopyridin-3-yl)-N-((7-chloro-5-(5-(piperazine-1-carbonyl)pyrimidin-2-yl)benzofuran-2-yl)methyl)acrylamide] | 0.1 to 5 µM | 0.1 to 5 µM | > 10 µM |  |  |  | 
Nc1ccc(/C=C/C(=O)NCc2cc3cc(-c4ccc(S(=O)(=O)N5CC(F)(F)C5)cc4)cc(Cl)c3o2)cn1 [Compound 642, (E)-3-(6-aminopyridin-3-yl)-N-((7-chloro-5-(4-(3,3-difluoroazetidin-1-ylsulfonyl)phenyl)benzofuran-2-yl)methyl)acrylamide] | 0.1 to 5 µM | 0.1 to 5 µM | > 10 µM |  |  |  | 
Nc1ccc(/C=C/C(=O)NCc2cc3cc(-c4ccc(C(=O)N5CC(O)(C(F)(F)F)C5)cn4)cc(C(F)(F)F)c3o2)cn1 [Compound 747, (E)-3-(6-aminopyridin-3-yl)-N-((5-(5-(3-hydroxy-3-(trifluoromethyl)azetidine-1-carbonyl)pyridin-2-yl)-7-(trifluoromethyl)benzofuran-2-yl)methyl)acrylamide] |  |  |  | 0.1 to 5 µM | 0.1 to 5 µM | > 10 µM | 
Nc1ccc(/C=C/C(=O)NCc2cc3cc(-c4ccc(C(=O)NNc5ccccn5)cc4)cc(C(F)(F)F)c3o2)cn1 [Compound 518, (E)-3-(6-aminopyridin-3-yl)-N-((5-(4-(2-(pyridin-2-yl)hydrazinecarbonyl)phenyl)-7-(trifluoromethyl)benzofuran-2-yl)methyl)acrylamide] |  | 0.1 to 5 µM | > 10 µM |  |  |  | 0.1 to 5 µM
Nc1ccc(/C=C/C(=O)NCc2coc3c(Cl)cc(-c4ccc(C(=O)N5CCC(F)(F)CC5)cn4)cc23)cn1 [Compound 766, (E)-3-(6-aminopyridin-3-yl)-N-((7-chloro-5-(5-(4,4-difluoropiperidine-1-carbonyl)pyridin-2-yl)benzofuran-3-yl)methyl)acrylamide] |  |  |  | 0.1 to 5 µM | 0.1 to 5 µM | 5 to 10 µM | 
Nc1ccc(/C=C/C(=O)NCc2cc3cc(-c4cccc(OC(=O)N5CCOCC5)c4)cc(C(F)(F)F)c3o2)cn1 [Compound 558, (E)-3-(2-((3-(6-aminopyridin-3-yl)acrylamido)methyl)-7-(trifluoromethyl)benzofuran-5-yl)phenyl morpholine-4-carboxylate] | > 10 µM | > 10 µM | > 10 µM |  |  |  | 
